Experimental data from ChEMBL document CHEMBL5291721, “A preclinical secondary pharmacology resource illuminates target-adverse drug reaction associations of marketed drugs” (Nat Commun, 2023).

Experiments:
Progesterone receptor [1] = molecular target: T1, Progesterone receptor (Homo sapiens, UniProt P06401); type: functional
T1 sequence (P06401 whole entry): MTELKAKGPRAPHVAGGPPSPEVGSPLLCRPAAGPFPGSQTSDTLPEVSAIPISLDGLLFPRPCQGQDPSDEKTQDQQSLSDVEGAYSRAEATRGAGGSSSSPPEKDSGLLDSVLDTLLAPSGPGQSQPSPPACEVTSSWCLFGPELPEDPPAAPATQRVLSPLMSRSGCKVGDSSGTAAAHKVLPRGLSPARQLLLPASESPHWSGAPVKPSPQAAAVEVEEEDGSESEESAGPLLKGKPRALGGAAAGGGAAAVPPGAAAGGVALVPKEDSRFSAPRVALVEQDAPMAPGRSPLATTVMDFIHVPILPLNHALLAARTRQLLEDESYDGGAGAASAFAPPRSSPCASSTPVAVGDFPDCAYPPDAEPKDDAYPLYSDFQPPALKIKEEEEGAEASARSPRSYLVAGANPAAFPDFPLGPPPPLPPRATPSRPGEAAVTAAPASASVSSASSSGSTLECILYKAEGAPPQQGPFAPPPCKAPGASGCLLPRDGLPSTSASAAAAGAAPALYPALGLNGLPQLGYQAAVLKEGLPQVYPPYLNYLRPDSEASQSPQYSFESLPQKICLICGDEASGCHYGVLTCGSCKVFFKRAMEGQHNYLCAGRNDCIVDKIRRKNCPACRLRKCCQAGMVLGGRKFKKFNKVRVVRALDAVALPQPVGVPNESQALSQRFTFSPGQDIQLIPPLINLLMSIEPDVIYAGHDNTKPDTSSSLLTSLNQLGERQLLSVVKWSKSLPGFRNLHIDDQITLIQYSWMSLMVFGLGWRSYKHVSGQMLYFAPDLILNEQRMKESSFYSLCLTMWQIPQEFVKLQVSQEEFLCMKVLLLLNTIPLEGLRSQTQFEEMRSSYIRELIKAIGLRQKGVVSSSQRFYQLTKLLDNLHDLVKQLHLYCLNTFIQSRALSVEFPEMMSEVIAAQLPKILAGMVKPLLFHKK

Mu-type opioid receptor = Mu-type opioid receptor (Homo sapiens, UniProt P35372)
[2] = molecular target: Sodium-dependent serotonin transporter (Homo sapiens, UniProt P31645)
Melanocortin receptor 4 = Melanocortin receptor 4 (Homo sapiens, UniProt P32245)
[3] = molecular target: Beta-2 adrenergic receptor (Homo sapiens, UniProt P07550)
[4] = molecular target: T2, Gastrin/cholecystokinin type B receptor (Homo sapiens, UniProt P32239)
T2 sequence (P32239 whole entry): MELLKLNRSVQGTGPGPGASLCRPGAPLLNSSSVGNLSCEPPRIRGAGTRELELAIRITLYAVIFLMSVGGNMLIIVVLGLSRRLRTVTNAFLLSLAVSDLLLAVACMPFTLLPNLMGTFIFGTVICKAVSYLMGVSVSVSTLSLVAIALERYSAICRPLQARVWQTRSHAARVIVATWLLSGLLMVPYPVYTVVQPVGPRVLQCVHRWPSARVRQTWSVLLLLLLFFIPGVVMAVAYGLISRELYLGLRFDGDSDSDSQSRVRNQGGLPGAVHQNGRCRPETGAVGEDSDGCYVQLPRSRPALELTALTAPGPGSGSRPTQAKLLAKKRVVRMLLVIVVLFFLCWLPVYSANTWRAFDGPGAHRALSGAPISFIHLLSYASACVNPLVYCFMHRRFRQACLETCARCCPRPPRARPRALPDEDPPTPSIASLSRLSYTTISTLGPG

Progesterone receptor [5] = molecular target: T1, Progesterone receptor; type: functional; remark: listed apart in the source
[6] = molecular target: T3, 5-hydroxytryptamine receptor 1A (Homo sapiens, UniProt P08908); type: functional, cell-based
T3 sequence (P08908 whole entry): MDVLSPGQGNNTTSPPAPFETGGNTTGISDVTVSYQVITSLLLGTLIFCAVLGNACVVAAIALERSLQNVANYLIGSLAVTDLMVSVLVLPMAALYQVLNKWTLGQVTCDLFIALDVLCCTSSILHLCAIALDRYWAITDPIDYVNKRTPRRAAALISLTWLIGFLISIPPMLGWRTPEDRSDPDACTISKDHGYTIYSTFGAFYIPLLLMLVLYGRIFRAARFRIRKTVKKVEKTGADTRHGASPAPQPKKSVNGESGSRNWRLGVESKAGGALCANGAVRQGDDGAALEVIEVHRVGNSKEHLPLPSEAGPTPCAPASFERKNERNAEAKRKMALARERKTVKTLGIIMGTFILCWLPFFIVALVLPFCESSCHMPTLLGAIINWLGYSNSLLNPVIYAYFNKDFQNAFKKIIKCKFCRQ

Histamine H2 receptor = Histamine H2 receptor (Homo sapiens, UniProt P25021); type: functional, cell-based
[7] = molecular target: T4, Muscarinic acetylcholine receptor M1 (Homo sapiens, UniProt P11229); type: functional, cell-based
T4 sequence (P11229 whole entry): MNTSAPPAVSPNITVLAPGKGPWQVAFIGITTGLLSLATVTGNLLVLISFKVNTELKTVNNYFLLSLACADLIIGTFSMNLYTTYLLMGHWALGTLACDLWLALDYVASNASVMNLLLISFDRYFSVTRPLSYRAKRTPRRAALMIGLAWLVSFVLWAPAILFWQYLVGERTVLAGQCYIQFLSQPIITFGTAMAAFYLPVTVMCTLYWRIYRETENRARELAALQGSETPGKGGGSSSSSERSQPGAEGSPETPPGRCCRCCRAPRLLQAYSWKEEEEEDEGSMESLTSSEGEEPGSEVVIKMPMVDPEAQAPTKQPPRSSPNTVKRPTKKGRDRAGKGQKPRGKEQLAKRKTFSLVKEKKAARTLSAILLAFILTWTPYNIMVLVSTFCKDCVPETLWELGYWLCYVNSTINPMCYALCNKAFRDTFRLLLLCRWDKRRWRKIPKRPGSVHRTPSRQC

[8] = molecular target: Prostaglandin G/H synthase 1 (Homo sapiens, UniProt P23219); type: functional
[9] = molecular target: Sodium-dependent dopamine transporter (Homo sapiens, UniProt Q01959)
Acetylcholinesterase = Acetylcholinesterase (Homo sapiens, UniProt P22303); type: functional
[10] = molecular target: Sodium-dependent noradrenaline transporter (Homo sapiens, UniProt P23975)
D(3) dopamine receptor = D(3) dopamine receptor (Homo sapiens, UniProt P35462)
[11] = molecular target: T3, 5-hydroxytryptamine receptor 1A
Note: assay procedure not described here.

Sequence of Mu-type opioid receptor (P35372 whole entry): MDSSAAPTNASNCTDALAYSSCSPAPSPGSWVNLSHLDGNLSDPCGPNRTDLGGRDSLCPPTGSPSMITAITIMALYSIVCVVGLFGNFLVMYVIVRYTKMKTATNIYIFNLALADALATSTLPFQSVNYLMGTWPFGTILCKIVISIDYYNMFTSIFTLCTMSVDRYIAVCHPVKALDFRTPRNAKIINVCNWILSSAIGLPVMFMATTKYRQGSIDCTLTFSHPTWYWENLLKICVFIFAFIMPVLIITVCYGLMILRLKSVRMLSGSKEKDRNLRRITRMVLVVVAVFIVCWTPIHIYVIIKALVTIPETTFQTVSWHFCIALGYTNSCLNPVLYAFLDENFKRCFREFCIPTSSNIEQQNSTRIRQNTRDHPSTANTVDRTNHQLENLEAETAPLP
Sequence of Acetylcholinesterase (P22303 whole entry): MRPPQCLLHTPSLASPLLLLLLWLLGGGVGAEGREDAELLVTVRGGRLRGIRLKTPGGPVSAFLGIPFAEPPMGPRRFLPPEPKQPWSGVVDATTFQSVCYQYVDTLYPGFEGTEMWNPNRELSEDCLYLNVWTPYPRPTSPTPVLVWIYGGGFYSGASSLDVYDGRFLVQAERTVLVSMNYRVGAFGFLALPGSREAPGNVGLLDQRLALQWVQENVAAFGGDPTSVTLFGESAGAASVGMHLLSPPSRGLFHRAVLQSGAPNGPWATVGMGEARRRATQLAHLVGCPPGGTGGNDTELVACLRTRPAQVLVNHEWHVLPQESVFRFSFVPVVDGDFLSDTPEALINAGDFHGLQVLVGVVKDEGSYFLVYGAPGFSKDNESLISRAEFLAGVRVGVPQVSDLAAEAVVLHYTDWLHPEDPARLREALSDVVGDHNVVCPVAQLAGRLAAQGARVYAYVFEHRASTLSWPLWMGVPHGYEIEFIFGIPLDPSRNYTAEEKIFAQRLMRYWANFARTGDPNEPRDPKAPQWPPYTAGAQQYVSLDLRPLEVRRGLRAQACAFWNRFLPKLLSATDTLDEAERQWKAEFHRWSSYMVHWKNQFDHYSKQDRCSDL
Sequence of Prostaglandin G/H synthase 1 (P23219 whole entry): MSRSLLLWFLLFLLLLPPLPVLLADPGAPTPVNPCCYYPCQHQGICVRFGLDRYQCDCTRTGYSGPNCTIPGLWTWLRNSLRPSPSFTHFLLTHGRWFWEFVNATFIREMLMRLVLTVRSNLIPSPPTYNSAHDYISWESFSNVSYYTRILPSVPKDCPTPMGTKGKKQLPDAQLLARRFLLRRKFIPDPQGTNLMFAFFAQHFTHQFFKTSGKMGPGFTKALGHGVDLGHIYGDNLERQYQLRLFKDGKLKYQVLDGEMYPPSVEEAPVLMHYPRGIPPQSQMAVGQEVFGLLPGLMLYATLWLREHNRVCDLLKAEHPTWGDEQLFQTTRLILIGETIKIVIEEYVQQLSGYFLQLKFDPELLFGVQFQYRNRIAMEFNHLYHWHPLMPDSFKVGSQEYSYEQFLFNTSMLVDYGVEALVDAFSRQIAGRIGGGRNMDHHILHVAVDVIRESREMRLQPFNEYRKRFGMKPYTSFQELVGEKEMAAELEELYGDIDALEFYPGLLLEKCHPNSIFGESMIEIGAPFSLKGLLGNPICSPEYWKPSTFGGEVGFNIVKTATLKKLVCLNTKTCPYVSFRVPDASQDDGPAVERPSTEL
Sequence of Beta-2 adrenergic receptor (P07550 whole entry): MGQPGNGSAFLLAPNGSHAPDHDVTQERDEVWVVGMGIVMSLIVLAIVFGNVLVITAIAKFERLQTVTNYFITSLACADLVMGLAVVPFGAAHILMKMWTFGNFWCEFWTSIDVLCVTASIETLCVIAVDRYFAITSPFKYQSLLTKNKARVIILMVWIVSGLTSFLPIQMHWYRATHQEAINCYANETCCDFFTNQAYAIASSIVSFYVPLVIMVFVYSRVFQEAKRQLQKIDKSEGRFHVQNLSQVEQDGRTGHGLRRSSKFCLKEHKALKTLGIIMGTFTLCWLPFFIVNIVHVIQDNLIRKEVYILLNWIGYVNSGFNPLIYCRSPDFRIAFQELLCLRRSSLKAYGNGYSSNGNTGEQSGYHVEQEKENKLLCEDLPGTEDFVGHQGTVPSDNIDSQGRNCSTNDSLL
Sequence of Histamine H2 receptor (P25021 whole entry): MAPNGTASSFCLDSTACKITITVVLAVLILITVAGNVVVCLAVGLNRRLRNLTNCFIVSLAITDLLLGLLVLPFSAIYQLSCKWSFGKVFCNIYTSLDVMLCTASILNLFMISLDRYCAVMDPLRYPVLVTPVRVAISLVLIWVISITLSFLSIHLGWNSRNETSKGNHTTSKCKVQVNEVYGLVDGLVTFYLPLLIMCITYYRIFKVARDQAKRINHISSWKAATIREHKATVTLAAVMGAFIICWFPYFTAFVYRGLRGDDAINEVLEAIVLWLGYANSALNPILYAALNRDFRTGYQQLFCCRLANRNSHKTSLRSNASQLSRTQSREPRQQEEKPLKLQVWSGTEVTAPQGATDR
Sequence of Melanocortin receptor 4 (P32245 whole entry): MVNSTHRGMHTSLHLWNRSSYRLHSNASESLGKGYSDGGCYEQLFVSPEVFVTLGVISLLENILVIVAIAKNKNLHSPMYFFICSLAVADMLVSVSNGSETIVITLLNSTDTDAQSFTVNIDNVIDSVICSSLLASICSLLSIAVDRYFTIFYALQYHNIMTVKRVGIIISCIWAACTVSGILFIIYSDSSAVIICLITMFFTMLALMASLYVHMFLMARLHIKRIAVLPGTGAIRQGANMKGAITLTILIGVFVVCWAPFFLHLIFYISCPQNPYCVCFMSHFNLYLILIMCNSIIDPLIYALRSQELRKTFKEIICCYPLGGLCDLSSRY
Sequence of Sodium-dependent serotonin transporter (P31645 whole entry): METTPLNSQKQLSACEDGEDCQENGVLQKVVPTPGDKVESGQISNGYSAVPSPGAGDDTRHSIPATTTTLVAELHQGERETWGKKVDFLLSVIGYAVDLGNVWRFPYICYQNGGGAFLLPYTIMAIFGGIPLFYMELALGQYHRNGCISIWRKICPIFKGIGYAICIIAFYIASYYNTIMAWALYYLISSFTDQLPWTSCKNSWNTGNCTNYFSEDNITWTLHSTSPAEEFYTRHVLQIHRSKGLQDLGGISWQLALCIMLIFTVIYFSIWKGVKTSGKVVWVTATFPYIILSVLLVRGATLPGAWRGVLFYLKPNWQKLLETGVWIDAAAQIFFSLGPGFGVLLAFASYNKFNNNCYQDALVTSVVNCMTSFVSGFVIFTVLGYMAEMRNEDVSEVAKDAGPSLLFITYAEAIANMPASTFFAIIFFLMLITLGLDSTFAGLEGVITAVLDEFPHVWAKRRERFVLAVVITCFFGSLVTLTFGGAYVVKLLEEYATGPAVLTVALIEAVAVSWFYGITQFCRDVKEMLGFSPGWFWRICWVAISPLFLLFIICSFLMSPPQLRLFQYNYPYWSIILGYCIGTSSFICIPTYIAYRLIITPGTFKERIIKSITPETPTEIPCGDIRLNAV
Sequence of Sodium-dependent noradrenaline transporter (P23975 whole entry): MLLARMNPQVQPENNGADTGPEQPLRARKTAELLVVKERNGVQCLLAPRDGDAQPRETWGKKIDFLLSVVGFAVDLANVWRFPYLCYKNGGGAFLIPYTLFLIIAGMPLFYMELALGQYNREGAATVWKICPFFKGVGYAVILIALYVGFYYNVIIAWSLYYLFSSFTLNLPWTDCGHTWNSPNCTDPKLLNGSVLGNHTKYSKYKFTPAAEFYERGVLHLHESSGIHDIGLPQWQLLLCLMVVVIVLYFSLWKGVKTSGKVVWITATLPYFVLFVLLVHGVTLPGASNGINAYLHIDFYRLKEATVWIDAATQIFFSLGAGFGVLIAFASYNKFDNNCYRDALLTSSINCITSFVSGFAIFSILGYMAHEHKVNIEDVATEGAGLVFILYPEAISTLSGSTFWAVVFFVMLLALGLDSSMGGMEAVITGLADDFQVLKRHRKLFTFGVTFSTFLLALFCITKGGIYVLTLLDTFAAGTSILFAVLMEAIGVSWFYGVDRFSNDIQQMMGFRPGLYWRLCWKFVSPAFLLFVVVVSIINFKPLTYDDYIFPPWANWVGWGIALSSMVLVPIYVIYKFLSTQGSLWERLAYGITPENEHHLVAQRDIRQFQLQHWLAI
Sequence of Sodium-dependent dopamine transporter (Q01959 whole entry): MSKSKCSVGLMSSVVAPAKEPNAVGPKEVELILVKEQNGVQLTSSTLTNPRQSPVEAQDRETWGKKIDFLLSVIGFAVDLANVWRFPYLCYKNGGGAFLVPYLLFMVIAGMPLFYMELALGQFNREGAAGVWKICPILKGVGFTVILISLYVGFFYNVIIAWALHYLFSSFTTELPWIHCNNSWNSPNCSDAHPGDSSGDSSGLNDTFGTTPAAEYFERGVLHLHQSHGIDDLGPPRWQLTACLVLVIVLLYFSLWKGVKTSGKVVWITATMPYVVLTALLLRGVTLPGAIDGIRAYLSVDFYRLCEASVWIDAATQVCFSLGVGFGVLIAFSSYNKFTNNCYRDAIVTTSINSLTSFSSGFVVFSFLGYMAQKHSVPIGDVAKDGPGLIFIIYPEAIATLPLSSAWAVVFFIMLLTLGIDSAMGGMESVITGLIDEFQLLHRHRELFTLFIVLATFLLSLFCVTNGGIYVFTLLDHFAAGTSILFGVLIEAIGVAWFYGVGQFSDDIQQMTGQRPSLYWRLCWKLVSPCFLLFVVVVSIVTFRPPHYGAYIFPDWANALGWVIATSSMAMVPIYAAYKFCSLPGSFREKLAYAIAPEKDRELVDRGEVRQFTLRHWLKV
Sequence of D(3) dopamine receptor (P35462 whole entry): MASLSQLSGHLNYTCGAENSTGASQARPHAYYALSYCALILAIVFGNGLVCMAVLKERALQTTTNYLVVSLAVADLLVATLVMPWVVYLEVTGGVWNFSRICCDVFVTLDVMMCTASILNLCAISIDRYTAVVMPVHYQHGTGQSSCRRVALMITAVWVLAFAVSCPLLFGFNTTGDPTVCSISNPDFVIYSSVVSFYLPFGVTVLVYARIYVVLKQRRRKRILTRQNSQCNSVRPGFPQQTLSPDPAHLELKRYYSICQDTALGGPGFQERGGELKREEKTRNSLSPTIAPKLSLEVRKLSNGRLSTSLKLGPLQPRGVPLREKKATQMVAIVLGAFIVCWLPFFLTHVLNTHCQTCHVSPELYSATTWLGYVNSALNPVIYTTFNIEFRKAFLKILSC

SMILES	AC50 (Progesterone receptor [1]) [µM]	AC50 (Mu-type opioid receptor) [µM]	AC50 [2] [µM]	AC50 (Melanocortin receptor 4) [µM]	AC50 [3] [µM]	AC50 [4] [µM]	AC50 (Progesterone receptor [5]) [µM]	AC50 [6] [µM]	AC50 (Histamine H2 receptor) [µM]	AC50 [7] [µM]	AC50 [8] [µM]	AC50 [9] [µM]	AC50 (Acetylcholinesterase) [µM]	AC50 [10] [µM]	AC50 (D(3) dopamine receptor) [µM]	AC50 [11] [µM]
O=C1Nc2ccc(Cl)cc2[C@@](C#CC2CC2)(C(F)(F)F)O1 [EFAVIRENZ]	14	> 30	> 30	> 30	> 30	45	> 30	> 10	> 10	–	–	–	–	–	–	–
CN1C(C(=O)Nc2ccccn2)=C(O)c2sc(Cl)cc2S1(=O)=O [LORNOXICAM]	–	> 30	> 30	> 30	> 30	> 30	–	> 10	> 10	–	–	–	–	–	–	–
CC[N+]1(C)[C@@H]2CC(OC(=O)[C@H](CO)c3ccccc3)C[C@H]1[C@@H]1O[C@@H]12 (some centres undefined) [OXITROPIUM]	–	–	–	–	–	–	–	–	–	0.003	> 30	> 30	> 30	> 30	> 30	> 30
O=C(CCNNC(=O)c1ccncc1)NCc1ccccc1 [NIALAMIDE]	–	–	–	–	–	–	–	–	–	> 30	8.28	> 30	> 30	> 30	> 30	> 30
CCC(=O)NCC[C@@H]1CCc2ccc3c(c21)CCO3 [RAMELTEON]	–	–	–	–	–	–	–	–	–	> 30	> 30	> 30	> 30	> 30	> 30	> 30
OCCN1C[C@H](O)[C@@H](O)[C@H](O)[C@H]1CO [MIGLITOL]	–	–	–	–	–	–	–	–	–	> 30	> 30	> 30	> 30	> 30	> 30	> 30
Cn1nnc2c(C(N)=O)ncn2c1=O [TEMOZOLOMIDE]	> 30	> 30	> 30	> 30	> 10	> 30	> 30	> 30	> 10	–	–	–	–	–	–	–
Oc1c(Cl)cc(Cl)c2cccnc12 [CHLOROXINE]	–	–	–	–	–	–	–	–	–	> 30	> 0.3	> 30	> 30	5.19	> 30	17.2
CN(C)[C@@H](c1cccc(O)c1)[C@H]1CCCC[C@H]1O [CIRAMADOL]	–	–	–	–	–	–	–	–	–	> 30	> 30	29.6	> 30	> 30	> 30	> 30
CC(=O)N[C@@H]1[C@@H](O)[C@H](O)[C@@H](CO)O[C@H]1O [N-ACETYLGLUCOSAMINE]	–	–	–	–	–	–	–	–	–	> 30	> 30	> 30	> 30	> 30	> 30	> 30
CN(C)S(=O)(=O)c1ccc2c(c1)N(CCCN1CCC(CCO)CC1)c1ccccc1S2 [PIPOTIAZINE]	–	–	–	–	–	–	–	–	–	7.84	> 30	8.9	> 30	12	0.003	0.32
N[C@H](C(=O)O)[C@H](O)c1ccc(O)c(O)c1 [DROXIDOPA]	–	–	–	–	–	–	–	–	–	> 30	> 30	> 30	> 30	> 30	> 30	> 30
CN1C(=O)CCS(=O)(=O)C1c1ccc(Cl)cc1 (centres undefined) [CHLORMEZANONE]	> 10	> 30	> 10	> 10	> 10	–	> 10	> 10	> 30	–	–	–	–	–	–	–
NS(=O)(=O)Cc1noc2ccccc12 [ZONISAMIDE]	> 10	> 30	> 10	> 10	> 10	–	> 10	> 10	> 10	–	–	–	–	–	–	–
CN(C)CC(c1ccc(O)cc1)C1(O)CCCCC1 (centres undefined) [DESVENLAFAXINE]	–	–	–	–	–	–	–	–	–	> 30	> 30	–	> 30	–	–	> 30
Nc1ccn([C@H]2CC[C@@H](CO)O2)c(=O)n1 [ZALCITABINE]	–	> 30	> 10	> 10	> 10	–	–	> 10	> 10	–	–	–	–	–	–	–
